Test results taken from US12522583B2, “Benzimidazole derivatives and aza-benzimidazole derivatives as Janus kinase 2 inhibitors and uses thereof” (Dana-Farber Cancer Institute, Inc., priority 2018, dated 2026).

Experiments:
Assay in all cases: KINOMEscan
Type in all cases: binding
Conditions in all cases: read-out: percent control
AURKC = AURKC (Homo sapiens (Human), UniProt Q9UQB9)
Source text: (§1) Example 2. In Vitro Kinase Selectivity Profiling of the Compounds of the Present Disclosure

TYRO3 = TYRO3 (Homo sapiens (Human), UniProt Q06418)
Source text: as §1

p38-delta = p38-delta (Homo sapiens (Human), UniProt O15264)
Source text: as §1

JNK1 = JNK1 (Homo sapiens (Human), UniProt P45983)
Source text: as §1

PLK1 = PLK1 (Homo sapiens (Human), UniProt P53350)
Source text: as §1

PKAC-beta = PKAC-beta (Homo sapiens (Human), UniProt P22694)
Source text: as §1

PAK6 = PAK6 (Homo sapiens (Human), UniProt Q9NQU5)
Source text: as §1

CAMK1 = CAMK1 (Homo sapiens (Human), UniProt Q14012)
Source text: as §1

AKT2 = AKT2 (Homo sapiens (Human), UniProt P31751)
Source text: as §1

MYLK4 = MYLK4 (Homo sapiens (Human), UniProt Q86YV6)
Source text: as §1

LCK = LCK (Homo sapiens (Human), UniProt P06239)
Source text: as §1

RIOK3 = RIOK3 (Homo sapiens (Human), UniProt O14730)
Source text: as §1

[1] = target: ABL1(Q252H)-phosphorylated (Homo sapiens (Human), UniProt P00519, Q252H)
Source text: as §1

LOK = LOK (Homo sapiens (Human), UniProt O94804)
Source text: as §1

EGFR(L861Q) = EGFR(L861Q) (Homo sapiens (Human), UniProt P00533, L861Q)
Source text: as §1

JNK3 = JNK3 (Homo sapiens (Human), UniProt P53779)
Source text: as §1

NEK5 = NEK5 (Homo sapiens (Human), UniProt Q6P3R8)
Source text: as §1

[2] = target: RSK1(Kin.Dom.2-C-terminal) (Homo sapiens (Human), UniProt Q15418)
Source text: as §1

NIM1 = NIM1 (Homo sapiens (Human), UniProt Q8IY84)
Source text: as §1

CSK = CSK (Homo sapiens (Human), UniProt P41240)
Source text: as §1

PIP5K2C = PIP5K2C (Homo sapiens (Human), UniProt Q8TBX8)
Source text: as §1

MEK3 = MEK3 (Homo sapiens (Human), UniProt P46734)
Source text: as §1

PIK3C2G = PIK3C2G (Homo sapiens (Human), UniProt O75747)
Source text: as §1

NEK7 = NEK7 (Homo sapiens (Human), UniProt Q8TDX7)
Source text: as §1

EPHB6 = EPHB6 (Homo sapiens (Human), UniProt O15197)
Source text: as §1

ICK = ICK (Homo sapiens (Human), UniProt Q9UPZ9)
Source text: as §1

FGFR1 = FGFR1 (Homo sapiens (Human), UniProt P11362)
Source text: as §1

PDGFRA = PDGFRA (Homo sapiens (Human), UniProt P16234)
Source text: as §1

WEE1 = WEE1 (Homo sapiens (Human), UniProt P30291)
Source text: as §1

BRAF = BRAF (Homo sapiens (Human), UniProt P15056)
Source text: as §1

PRKCD = PRKCD (Homo sapiens (Human), UniProt Q05655)
Source text: as §1

SRC = SRC (Homo sapiens (Human), UniProt P12931)
Source text: as §1

CDK4-cyclinD3 = CDK4-cyclinD3 (Homo sapiens (Human), UniProt P11802)
Source text: as §1

ZAP70 = ZAP70 (Homo sapiens (Human), UniProt P43403)
Source text: as §1

[3] = target: JAK2(JH1domain-catalytic) (Homo sapiens (Human), UniProt O60674)
Source text: as §1

DAPK3 = DAPK3 (Homo sapiens (Human), UniProt O43293)
Source text: as §1

MST1 = MST1 (Homo sapiens (Human), UniProt Q13043)
Source text: as §1

[4] = target: TYK2(JH2domain-pseudokinase) (Homo sapiens (Human), UniProt P29597)
Source text: as §1

BRSK1 = BRSK1 (Homo sapiens (Human), UniProt Q8TDC3)
Source text: as §1

EPHA5 = EPHA5 (Homo sapiens (Human), UniProt P54756)
Source text: as §1

IRAK3 = IRAK3 (Homo sapiens (Human), UniProt Q9Y616)
Source text: as §1

Chain of EGFR(L861Q) (P00533 25-1210 L861Q): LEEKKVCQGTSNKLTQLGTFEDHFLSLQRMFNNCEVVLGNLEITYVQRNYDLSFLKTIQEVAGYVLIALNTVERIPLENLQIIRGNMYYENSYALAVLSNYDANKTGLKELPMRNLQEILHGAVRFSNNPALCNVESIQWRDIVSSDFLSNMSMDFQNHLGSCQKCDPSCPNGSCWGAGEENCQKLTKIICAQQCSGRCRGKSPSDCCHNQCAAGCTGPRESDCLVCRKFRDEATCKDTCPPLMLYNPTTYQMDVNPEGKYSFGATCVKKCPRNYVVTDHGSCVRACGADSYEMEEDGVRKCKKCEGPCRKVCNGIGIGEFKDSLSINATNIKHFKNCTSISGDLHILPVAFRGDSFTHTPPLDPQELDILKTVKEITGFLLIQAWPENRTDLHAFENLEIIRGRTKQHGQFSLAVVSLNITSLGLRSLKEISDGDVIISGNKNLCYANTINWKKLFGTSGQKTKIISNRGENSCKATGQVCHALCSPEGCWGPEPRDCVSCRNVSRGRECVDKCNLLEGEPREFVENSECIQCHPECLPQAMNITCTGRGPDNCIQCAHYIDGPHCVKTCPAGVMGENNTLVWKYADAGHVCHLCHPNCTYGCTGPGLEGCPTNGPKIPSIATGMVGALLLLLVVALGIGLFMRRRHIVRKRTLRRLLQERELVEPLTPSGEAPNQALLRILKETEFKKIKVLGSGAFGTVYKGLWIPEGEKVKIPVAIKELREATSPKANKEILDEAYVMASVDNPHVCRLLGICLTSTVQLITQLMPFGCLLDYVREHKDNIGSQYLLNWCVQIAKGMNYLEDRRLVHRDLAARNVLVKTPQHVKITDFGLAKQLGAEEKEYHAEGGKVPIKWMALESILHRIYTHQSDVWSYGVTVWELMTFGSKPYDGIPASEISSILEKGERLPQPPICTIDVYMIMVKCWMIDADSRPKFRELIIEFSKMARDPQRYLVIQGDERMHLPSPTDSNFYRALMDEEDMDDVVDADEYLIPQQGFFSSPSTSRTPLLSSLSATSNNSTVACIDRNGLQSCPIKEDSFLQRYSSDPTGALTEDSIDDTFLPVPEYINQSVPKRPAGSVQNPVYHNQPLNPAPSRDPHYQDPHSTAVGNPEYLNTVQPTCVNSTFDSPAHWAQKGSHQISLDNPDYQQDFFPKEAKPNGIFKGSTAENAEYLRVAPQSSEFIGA
Chain of MEK3 (P46734 whole entry): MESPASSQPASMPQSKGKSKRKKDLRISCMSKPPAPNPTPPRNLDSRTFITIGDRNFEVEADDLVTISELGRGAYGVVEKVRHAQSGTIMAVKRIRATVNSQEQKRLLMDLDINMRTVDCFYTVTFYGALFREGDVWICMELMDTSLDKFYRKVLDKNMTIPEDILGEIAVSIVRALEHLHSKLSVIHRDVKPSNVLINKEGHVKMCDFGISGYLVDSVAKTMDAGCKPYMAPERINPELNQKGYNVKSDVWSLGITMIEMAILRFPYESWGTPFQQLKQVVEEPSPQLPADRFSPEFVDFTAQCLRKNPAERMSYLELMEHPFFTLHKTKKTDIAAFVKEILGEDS
Chain of JNK1 (P45983 whole entry): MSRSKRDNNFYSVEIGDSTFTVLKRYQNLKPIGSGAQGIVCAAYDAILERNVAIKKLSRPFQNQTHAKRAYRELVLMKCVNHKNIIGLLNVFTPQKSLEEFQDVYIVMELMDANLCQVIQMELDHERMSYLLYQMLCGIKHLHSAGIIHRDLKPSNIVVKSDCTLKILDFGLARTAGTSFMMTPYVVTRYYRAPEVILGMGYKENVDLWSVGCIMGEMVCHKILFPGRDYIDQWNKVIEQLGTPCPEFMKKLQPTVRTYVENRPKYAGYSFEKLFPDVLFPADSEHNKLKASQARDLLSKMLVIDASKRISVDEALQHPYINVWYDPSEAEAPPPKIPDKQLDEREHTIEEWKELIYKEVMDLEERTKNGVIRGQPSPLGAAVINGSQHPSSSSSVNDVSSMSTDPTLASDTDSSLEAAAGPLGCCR
Chain of PRKCD (Q05655 whole entry): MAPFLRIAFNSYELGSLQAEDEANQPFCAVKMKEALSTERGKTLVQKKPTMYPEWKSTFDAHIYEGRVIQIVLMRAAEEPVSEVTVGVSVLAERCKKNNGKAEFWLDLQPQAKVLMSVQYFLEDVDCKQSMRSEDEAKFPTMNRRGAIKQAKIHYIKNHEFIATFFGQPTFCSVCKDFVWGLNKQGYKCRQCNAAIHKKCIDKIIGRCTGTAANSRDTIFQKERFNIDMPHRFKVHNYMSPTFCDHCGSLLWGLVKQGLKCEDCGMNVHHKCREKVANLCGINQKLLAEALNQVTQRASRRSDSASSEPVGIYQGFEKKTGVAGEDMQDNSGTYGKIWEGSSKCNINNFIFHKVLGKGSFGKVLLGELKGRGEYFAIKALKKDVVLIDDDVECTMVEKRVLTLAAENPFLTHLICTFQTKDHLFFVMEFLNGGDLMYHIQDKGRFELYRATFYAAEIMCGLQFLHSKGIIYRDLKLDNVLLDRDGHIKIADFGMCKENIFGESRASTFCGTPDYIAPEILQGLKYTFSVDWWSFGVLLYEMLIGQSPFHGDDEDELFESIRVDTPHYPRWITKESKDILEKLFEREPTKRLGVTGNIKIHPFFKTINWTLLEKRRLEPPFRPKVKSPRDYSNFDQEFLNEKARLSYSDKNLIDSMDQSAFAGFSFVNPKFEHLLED
Chain of RIOK3 (O14730 whole entry): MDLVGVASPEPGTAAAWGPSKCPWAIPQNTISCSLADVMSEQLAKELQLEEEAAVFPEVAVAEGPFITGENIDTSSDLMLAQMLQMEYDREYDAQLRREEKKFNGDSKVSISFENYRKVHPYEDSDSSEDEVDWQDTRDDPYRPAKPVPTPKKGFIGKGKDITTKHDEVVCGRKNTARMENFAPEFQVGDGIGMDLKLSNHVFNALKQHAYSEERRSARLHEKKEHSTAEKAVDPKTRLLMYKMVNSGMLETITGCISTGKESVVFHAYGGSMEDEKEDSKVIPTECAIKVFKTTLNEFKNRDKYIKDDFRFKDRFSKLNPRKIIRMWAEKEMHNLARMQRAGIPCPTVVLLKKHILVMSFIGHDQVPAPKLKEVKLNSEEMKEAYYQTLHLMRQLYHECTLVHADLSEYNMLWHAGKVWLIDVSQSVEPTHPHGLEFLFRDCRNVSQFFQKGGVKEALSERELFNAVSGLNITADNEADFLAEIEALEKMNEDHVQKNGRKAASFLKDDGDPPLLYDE
Chain of PIK3C2G (O75747 whole entry): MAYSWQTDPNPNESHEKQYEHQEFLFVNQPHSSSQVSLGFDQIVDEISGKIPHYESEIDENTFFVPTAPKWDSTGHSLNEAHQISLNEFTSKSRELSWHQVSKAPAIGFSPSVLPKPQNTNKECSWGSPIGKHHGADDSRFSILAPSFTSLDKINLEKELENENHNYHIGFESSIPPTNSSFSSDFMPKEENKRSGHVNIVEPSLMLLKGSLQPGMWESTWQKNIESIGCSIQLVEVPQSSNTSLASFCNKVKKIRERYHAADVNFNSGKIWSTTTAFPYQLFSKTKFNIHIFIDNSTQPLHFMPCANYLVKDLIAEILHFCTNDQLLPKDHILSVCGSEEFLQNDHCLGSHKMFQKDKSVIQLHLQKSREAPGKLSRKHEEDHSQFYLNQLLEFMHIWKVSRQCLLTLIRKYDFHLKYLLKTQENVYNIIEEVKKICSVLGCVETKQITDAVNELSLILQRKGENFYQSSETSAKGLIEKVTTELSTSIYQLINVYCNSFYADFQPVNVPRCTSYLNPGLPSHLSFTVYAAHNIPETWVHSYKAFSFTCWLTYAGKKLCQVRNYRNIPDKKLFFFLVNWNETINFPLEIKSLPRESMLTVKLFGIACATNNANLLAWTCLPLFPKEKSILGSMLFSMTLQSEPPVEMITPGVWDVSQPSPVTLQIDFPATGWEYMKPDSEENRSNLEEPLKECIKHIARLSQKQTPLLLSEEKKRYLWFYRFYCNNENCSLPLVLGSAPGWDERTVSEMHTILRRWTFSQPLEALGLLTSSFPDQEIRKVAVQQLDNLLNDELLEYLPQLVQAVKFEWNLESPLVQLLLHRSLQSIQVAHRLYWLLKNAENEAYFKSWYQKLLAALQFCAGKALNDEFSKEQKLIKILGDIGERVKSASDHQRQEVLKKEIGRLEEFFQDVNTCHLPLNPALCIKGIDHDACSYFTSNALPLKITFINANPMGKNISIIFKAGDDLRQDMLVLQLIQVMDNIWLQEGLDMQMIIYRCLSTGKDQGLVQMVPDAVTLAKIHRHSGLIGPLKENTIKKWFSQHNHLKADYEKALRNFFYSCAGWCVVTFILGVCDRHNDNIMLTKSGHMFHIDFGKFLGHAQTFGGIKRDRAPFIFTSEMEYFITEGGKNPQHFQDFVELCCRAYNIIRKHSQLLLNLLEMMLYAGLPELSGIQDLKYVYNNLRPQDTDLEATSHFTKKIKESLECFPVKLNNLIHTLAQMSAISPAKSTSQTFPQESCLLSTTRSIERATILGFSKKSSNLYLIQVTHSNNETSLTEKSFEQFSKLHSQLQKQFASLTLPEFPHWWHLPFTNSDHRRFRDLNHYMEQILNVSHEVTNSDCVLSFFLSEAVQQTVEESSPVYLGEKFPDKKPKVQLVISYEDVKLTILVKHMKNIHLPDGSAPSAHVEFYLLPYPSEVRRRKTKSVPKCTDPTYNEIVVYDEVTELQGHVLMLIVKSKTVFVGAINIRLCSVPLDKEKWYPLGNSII
Chain of RSK1(Kin.Dom.2-C-terminal) (Q15418 418-675 limits assumed): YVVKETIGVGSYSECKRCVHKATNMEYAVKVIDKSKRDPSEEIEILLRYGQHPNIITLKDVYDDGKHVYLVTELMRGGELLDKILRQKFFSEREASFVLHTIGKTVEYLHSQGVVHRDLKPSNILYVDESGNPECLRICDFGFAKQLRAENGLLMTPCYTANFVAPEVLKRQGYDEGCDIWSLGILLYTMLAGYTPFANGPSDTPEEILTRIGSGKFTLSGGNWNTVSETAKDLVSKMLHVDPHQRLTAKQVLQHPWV

SMILES: CCN1CCN(Cc2ccc(Nc3nc4ccc(Oc5ccnc(NC(C)=O)c5)cc4n3C)cc2C(F)(F)F)CC1 [Compound I-2]
- remaining binding at 1 µM (AURKC): 19%
- remaining binding at 1 µM (TYRO3): 100%
- remaining binding at 1 µM (p38-delta): 77%
- remaining binding at 1 µM (JNK1): 79%
- remaining binding at 1 µM (PLK1): 100%
- remaining binding at 1 µM (PKAC-beta): 94%
- remaining binding at 1 µM (PAK6): 93%
- remaining binding at 1 µM (CAMK1): 83%
- remaining binding at 1 µM (AKT2): 100%
- remaining binding at 1 µM (MYLK4): 100%
- remaining binding at 1 µM (LCK): 18%
- remaining binding at 1 µM (RIOK3): 22%
- remaining binding at 1 µM [1]: 36%
- remaining binding at 1 µM (LOK): 21%
- remaining binding at 1 µM (EGFR(L861Q)): 98%
- remaining binding at 1 µM (JNK3): 100%
- remaining binding at 1 µM (NEK5): 38%
- remaining binding at 1 µM [2]: 93%
- remaining binding at 1 µM (NIM1): 97%
- remaining binding at 1 µM (CSK): 63%
- remaining binding at 1 µM (PIP5K2C): 96%
- remaining binding at 1 µM (MEK3): 57%
- remaining binding at 1 µM (PIK3C2G): 80%
- remaining binding at 1 µM (NEK7): 88%
- remaining binding at 1 µM (EPHB6): 72%
- remaining binding at 1 µM (ICK): 100%
- remaining binding at 1 µM (FGFR1): 86%
- remaining binding at 1 µM (PDGFRA): 3.8%
- remaining binding at 1 µM (WEE1): 95%
- remaining binding at 1 µM (BRAF): 3.9%
- remaining binding at 1 µM (PRKCD): 92%
- remaining binding at 1 µM (SRC): 61%
- remaining binding at 1 µM (CDK4-cyclinD3): 72%
- remaining binding at 1 µM (ZAP70): 100%
- remaining binding at 1 µM [3]: 16%
- remaining binding at 1 µM (DAPK3): 76%
- remaining binding at 1 µM (MST1): 93%
- remaining binding at 1 µM [4]: 100%
- remaining binding at 1 µM (BRSK1): 100%
- remaining binding at 1 µM (EPHA5): 98%
- remaining binding at 1 µM (IRAK3): 91%

SMILES: CCN1CCN(Cc2ccc(Nc3nc4ccc(Oc5ccnc(NC(C)=O)c5)c(C)c4n3C)cc2C(F)(F)F)CC1 [Compound I-6, N-(4-(2-(4-((4-ethylpiperazin-1-yl)methyl)-3-(trifluoromethyl)phenylamino)-1,7-dimethyl-1H-benzo[d]imidazol-6-yloxy)pyridin-2-yl)acetamide]
- remaining binding at 1 µM (AURKC): 70%
- remaining binding at 1 µM (TYRO3): 100%
- remaining binding at 1 µM (p38-delta): 73%
- remaining binding at 1 µM (JNK1): 90%
- remaining binding at 1 µM (PLK1): 71%
- remaining binding at 1 µM (PKAC-beta): 86%
- remaining binding at 1 µM (PAK6): 90%
- remaining binding at 1 µM (CAMK1): 93%
- remaining binding at 1 µM (AKT2): 100%
- remaining binding at 1 µM (MYLK4): 96%
- remaining binding at 1 µM (LCK): 1.6%
- remaining binding at 1 µM (RIOK3): 100%
- remaining binding at 1 µM [1]: 24%
- remaining binding at 1 µM (LOK): 0.45%
- remaining binding at 1 µM (EGFR(L861Q)): 100%
- remaining binding at 1 µM (JNK3): 77%
- remaining binding at 1 µM (NEK5): 6.7%
- remaining binding at 1 µM [2]: 100%
- remaining binding at 1 µM (NIM1): 93%
- remaining binding at 1 µM (CSK): 87%
- remaining binding at 1 µM (PIP5K2C): 93%
- remaining binding at 1 µM (MEK3): 87%
- remaining binding at 1 µM (PIK3C2G): 86%
- remaining binding at 1 µM (NEK7): 95%
- remaining binding at 1 µM (EPHB6): 95%
- remaining binding at 1 µM (ICK): 82%
- remaining binding at 1 µM (FGFR1): 75%
- remaining binding at 1 µM (PDGFRA): 4.2%
- remaining binding at 1 µM (WEE1): 100%
- remaining binding at 1 µM (BRAF): 9.2%
- remaining binding at 1 µM (PRKCD): 89%
- remaining binding at 1 µM (SRC): 32%
- remaining binding at 1 µM (CDK4-cyclinD3): 95%
- remaining binding at 1 µM (ZAP70): 99%
- remaining binding at 1 µM [3]: 29%
- remaining binding at 1 µM (DAPK3): 99%
- remaining binding at 1 µM (MST1): 100%
- remaining binding at 1 µM [4]: 76%
- remaining binding at 1 µM (BRSK1): 100%
- remaining binding at 1 µM (EPHA5): 98%
- remaining binding at 1 µM (IRAK3): 91%
